In BindingDB's records for doi:10.7270/Q2F769WQ (University of Pittsburgh, 2007):
pIC50: −log10 of the molar value.

Target: T1, Dual specificity protein phosphatase 1 (Homo sapiens, UniProt P28562)
T1 sequence (P28562 whole entry): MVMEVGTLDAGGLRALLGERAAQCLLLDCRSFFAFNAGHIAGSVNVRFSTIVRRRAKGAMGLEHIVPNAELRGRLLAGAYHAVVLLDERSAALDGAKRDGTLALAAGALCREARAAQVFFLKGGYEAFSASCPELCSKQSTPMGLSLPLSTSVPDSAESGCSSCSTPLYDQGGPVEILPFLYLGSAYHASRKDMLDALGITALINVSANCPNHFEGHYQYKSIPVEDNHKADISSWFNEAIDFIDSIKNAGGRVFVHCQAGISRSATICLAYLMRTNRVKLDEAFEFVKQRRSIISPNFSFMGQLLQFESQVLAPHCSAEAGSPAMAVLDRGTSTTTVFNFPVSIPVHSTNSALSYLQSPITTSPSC
Assay: MKP-1 phosphatase inhibitor potency, dose response, biochemical, in vitro, confirmation (AID 551)
Settings: pH 7; 22 °C

For `Cc1ccc(/C=C/C2=Cc3c(sc(NC(=O)CSc4nnc(N)[nH]4)c3C#N)C(C)(C)C2)o1` [2-[(5-azanyl-1H-1,2,4-triazol-3-yl)sulfanyl]-N-[3-cyano-7,7-dimethyl-5-[(E)-2-(5-methylfuran-2-yl)ethenyl]-6H-1-benzothiophen-2-yl]ethanamide], the pIC50 was 5.03.
`CC1CCCCC1NC(=O)CCn1c(=O)oc2ccccc21` (stereo not given) [3-(2-keto-1,3-benzoxazol-3-yl)-N-(2-methylcyclohexyl)propionamide] was tested, and the pIC50 was < 4.30.
With `O=C(CSc1nc2ccccc2c(=O)[nH]1)Nc1ccc(S(=O)(=O)N2CCCC2)cc1` [2-[(4-oxo-1H-quinazolin-2-yl)sulfanyl]-N-(4-pyrrolidin-1-ylsulfonylphenyl)acetamide] the pIC50 was < 4.30.
In the case of `Cc1ccc(NC(=O)COC(=O)c2ccc3c(c2)NC(=O)C2CCCN32)cc1C` (stereo not given) [4-keto-2,3,3a,5-tetrahydro-1H-pyrrolo[1,2-a]quinoxaline-7-carboxylic acid [2-(3,4-dimethylanilino)-2-keto-ethyl] ester], the pIC50 was < 4.30.
Work on `Cc1ccc(-c2csc(NC(=O)c3ccno3)n2)cc1` [MLS000081820] yielded a pIC50 of 4.41.
With `Nc1c(N2CCCC2)cc(Cl)c2nonc12` [(7-chloro-5-pyrrolidino-benzofurazan-4-yl)amine] the pIC50 was < 4.30.
`CCCCNC(=O)CSc1nnc(-c2ccco2)n1C` [MLS000033335] was tested, and the pIC50 was < 4.30.
`N#Cc1c(N)sc(=S)c2c1CCN(Cc1ccccc1)C2` [3-Amino-7-benzyl-1-thioxo-5,6,7,8-tetrahydro-1H-thiopyrano[3,4-c]pyridine-4-carbonitrile] was tested, and the pIC50 was 5.95.
With `CC1CCCCC1NS(=O)(=O)c1ccc(S(=O)(=O)NCc2ccncc2)cc1` (stereo not given) [4-N-(2-methylcyclohexyl)-1-N-(pyridin-4-ylmethyl)benzene-1,4-disulfonamide] the pIC50 was < 4.30.
`C=CCn1c(NC(=O)c2ccccc2Cl)c(C#N)c2nc3ccccc3nc21` [2-chloro-N-(3-cyano-1-prop-2-enyl-2-pyrrolo[3,2-b]quinoxalinyl)benzamide] was tested, and the pIC50 was < 4.30.
For `Cc1cccc(NC(=O)c2cc(NC(=O)C3CCCCC3C(=O)O)ccc2N2CCCCC2)c1` (stereo not given) [2-({[3-{[(3-methylphenyl)amino]carbonyl}-4-(1-piperidinyl)phenyl]amino}carbonyl)cyclohexanecarboxylic acid], the pIC50 was 4.31.
For `O=C1C=Cc2ccccc2C1=O` [1,2-dihydronaphthalene-1,2-dione], the pIC50 was 4.74.
In the case of `O=C1C=Cc2ccccc2/C1=C/NC12CN3CCN(CN(C3)C1)C2` [MLS000071484], the pIC50 was < 4.30.
In the case of `CC(C)(C)N1C(=O)Cc2c1nc(N)c1c(N)nc(N3CCCCC3CO)c(C#N)c21` (stereo not given) [5,6-bis(azanyl)-3-tert-butyl-8-[2-(hydroxymethyl)piperidin-1-yl]-2-oxidanylidene-1H-pyrrolo[2,3-c][2,7]naphthyridine-9-carbonitrile], the pIC50 was < 4.30.
In the case of `Cn1c(=O)oc2cc(S(=O)(=O)NCCC(=O)NC3CCCC3)ccc21` [MLS000093068], the pIC50 was < 4.30.
`FC(F)(F)c1ccc(N2CCOCC2)c(Nc2nc3ccccc3n3cnnc23)c1` [MLS000093276] showed a pIC50 of 4.64.
`O=C(CSc1nc2c(cnn2-c2ccccc2)c(=O)[nH]1)c1ccc(Cl)cc1` [MLS000091816] was tested, and the pIC50 was < 4.30.
`Cc1cc(NC(=O)c2ccc(S(=O)(=O)N3CCCC3)cc2)nc2c1c(=O)oc1ccccc12` [MLS000091355] was tested, and the pIC50 was 4.42.
With `CCCCCC1CCC(C(=O)O)CC1` (stereo not given) [SMR000019012] the pIC50 was < 4.30.
With `c1ccc(SCc2nc(-c3ccncc3)no2)cc1` [4-{5-[(phenylthio)methyl]-1,2,4-oxadiazol-3-yl}pyridine] the pIC50 was < 4.30.
For `O=C(CSc1nc2n[nH]cc2c(=O)n1-c1ccccc1)N1CCCc2ccccc21`, the pIC50 was < 4.30.
For `O=C(Nc1ccccc1)c1ccc2nc(-c3ccco3)c(-c3ccco3)nc2c1` [2,3-di-2-furyl-N-phenyl-6-quinoxalinecarboxamide], the pIC50 was 4.67.
Compound `Cc1ccc(C)n1-c1cccc(C(=O)O)c1` has a pIC50 of 4.92.
`CCCSc1nnc(NC(=O)c2sc3nc(-c4cccs4)ccc3c2N)s1` [3-amino-N-(5-propylsulfanyl-1,3,4-thiadiazol-2-yl)-6-thiophen-2-ylthieno[2,3-b]pyridine-2-carboxamide] was tested, and the pIC50 was 4.91.
`COc1ccc(-n2c(NC(=O)c3ccco3)c(C#N)c3nc4ccccc4nc32)cc1` [MLS000079925] was tested, and the pIC50 was 4.82.
`[O-]/[N+](=C\c1ccncc1)c1ccc(Br)cc1` [MLS000109219] was tested, and the pIC50 was < 4.30.
With `O=C(c1cccn2c(=O)c3ccc(Cl)cc3nc12)N1CCN(Cc2ccc3c(c2)OCO3)CC1` [3-chloro-6-(4-piperonylpiperazine-1-carbonyl)pyrido[2,1-b]quinazolin-11-one] the pIC50 was < 4.30.
In the case of `[O-]/[N+](=C/c1ccc(F)cc1)c1ccccc1` [(E)-(4-fluorobenzylidene)(phenyl)azane oxide], the pIC50 was < 4.30.
In the case of `O=C(Nc1cccc(-c2nc3ccccc3[nH]2)c1)c1cccc(NC(=O)c2ccco2)c1` [N-[3-[[3-(1H-benzimidazol-2-yl)phenyl]carbamoyl]phenyl]furan-2-carboxamide], the pIC50 was < 4.30.
With `CCCCCNC(=O)c1ccc2c(=O)[nH]c3c(C(=O)NCC4CCCO4)sc(=S)n3c2c1` (stereo not given) [5-oxo-N3-(2-oxolanylmethyl)-N8-pentyl-1-sulfanylidene-4H-thiazolo[3,4-a]quinazoline-3,8-dicarboxamide] the pIC50 was 4.42.
With `COc1ccc(C(=O)CSc2nnc(CNC(=O)c3ccc(OC)c(OC)c3)n2C)cc1` [3,4-dimethoxy-N-[(5-{[2-(4-methoxyphenyl)-2-oxoethyl]thio}-4-methyl-4H-1,2,4-triazol-3-yl)methyl]benzamide] the pIC50 was < 4.30.
`Cc1c(N=c2c(=O)c3ccccc3c2=O)c(=O)n(-c2ccccc2)n1C` [MLS000105950] gave a pIC50 of 5.05.
In the case of `Cc1ccc(NC(=O)CSc2nnc(-c3ccc(S(=O)(=O)N4CCCC4)cc3)o2)cc1C` [MLS000071775], the pIC50 was < 4.30.
In the case of `COc1ccc(S(=O)(=O)N2CCC(NC(=O)Nc3ccc(C)cc3)CC2)cc1` [1-[1-(4-Methoxy-benzenesulfonyl)-piperidin-4-yl]-3-p-tolyl-urea], the pIC50 was < 4.30.
For `Cc1ccc(Nc2nc(CSc3nnnn3-c3ccccc3)cc(=O)[nH]2)cc1` [2-[(4-methylphenyl)amino]-6-{[(1-phenyl-1H-tetrazol-5-yl)thio]methyl}-4(3H)-pyrimidinone], the pIC50 was < 4.30.
`CCn1nc(-c2ccccc2)nc2c(=O)n(C)c(=O)nc1-2` [1-Ethyl-6-methyl-3-phenyl-1H-pyrimido[5,4-e][1,2,4]triazine-5,7-dione] gave a pIC50 of 6.71.
With `CCc1ccc(NC(=O)CSc2nc3ccccc3c(=O)n2CCN2CCOCC2)cc1` [MLS000095236] the pIC50 was 4.34.
In the case of `CCOc1ccc2noc3c2c1C(=O)c1ccccc1-3` [MLS000106837], the pIC50 was 4.31.
With `Cc1cc2n(n1)SC(Nc1ccccc1)N2` (stereo not given) [(6-methyl-2,5-dihydropyrazolo[1,5-b][1,2,4]thiadiazol-2-yl)-phenyl-amine] the pIC50 was < 4.30.
With `CC(C)(C)C(=O)c1sc(Nc2ccccc2)nc1N` [1-(4-amino-2-anilino-1,3-thiazol-5-yl)-2,2-dimethyl-1-propanone] the pIC50 was < 4.30.
In the case of `COC(=O)C1C(C)=NC2=C(C(=O)c3ccccc32)C1c1ccc(-c2ccc(C(=O)O)cc2)o1` (stereo not given) [4-{5-[3-(methoxycarbonyl)-2-methyl-5-oxo-4,5-dihydro-1H-indeno[1,2-b]pyridin-4-yl]-2-furyl}benzoic acid], the pIC50 was < 4.30.
In the case of `Cc1cccc(N2CCN(C(=O)c3cc4c(=O)[nH]c5ccccc5c4n3C)CC2)c1C` [2-{[4-(2,3-dimethylphenyl)piperazin-1-yl]carbonyl}-1-methyl-1,5-dihydro-4H-pyrrolo[3,2-c]quinolin-4-one], the pIC50 was < 4.30.
For `COC(=O)N(c1ccc(OC)cc1)P1(=S)OCCC(C)O1` (stereo not given) [MLS000043492], the pIC50 was < 4.30.
With `CC(C)Sc1nc2sc3c(c2c2nnc(SCC(=O)NCc4ccco4)n12)CCCC3` [MLS000082957] the pIC50 was 4.98.
In the case of `O=C(Nc1ccc2nc(-c3ccco3)c(-c3ccco3)nc2c1)N1CCCCCC1`, the pIC50 was 4.91.
In the case of `Cc1nc2cc(-c3cccc(F)c3)nn2c(C)c1CCC(=O)N1CCC2(CC1)OCCO2` [1-(1,4-dioxa-8-azaspiro[4.5]decan-8-yl)-3-[2-(3-fluorophenyl)-5,7-dimethyl-6-pyrazolo[1,5-a]pyrimidinyl]-1-propanone], the pIC50 was < 4.30.
`COc1cc(/C=C(/C#N)c2ccc(F)cc2)ccc1OCc1ccc(C(=O)O)o1` [5-({4-[2-cyano-2-(4-fluorophenyl)vinyl]-2-methoxyphenoxy}methyl)-2-furoic acid] was tested, and the pIC50 was < 4.30.
`Nc1ccc2ncccc2c1N` [SMR000015817] was tested, and the pIC50 was < 4.30.
`CN1Cc2cc(C(=O)c3cc(Cl)cc(CSc4ncccn4)c3O)cnc2NC1=O` [6-[5-chloranyl-2-oxidanyl-3-(pyrimidin-2-ylsulfanylmethyl)phenyl]carbonyl-3-methyl-1,4-dihydropyrido[2,3-d]pyrimidin-2-one] was tested, and the pIC50 was < 4.30.
Compound `O=C1CC(c2ccccc2)c2cc(O)ccc2O1` (stereo not given) [6-hydroxy-4-phenyl-3,4-dihydro-2H-1-benzopyran-2-one] has a pIC50 of 4.31.
With `O=c1c2ccc[nH]c-2c(Nc2ccc(S(=O)(=O)N3CCCCCC3)cc2)n1Cc1ccccc1` [7-[[4-(azepan-1-ylsulfonyl)phenyl]amino]-6-(phenylmethyl)-7H-pyrrolo[3,4-b]pyridin-5-one] the pIC50 was < 4.30.
With `COC(=O)CCC(=O)Oc1ccc(OC(=O)CCC(=O)OC)cc1` [4-O-[4-(4-methoxy-4-oxobutanoyl)oxyphenyl] 1-O-methyl butanedioate] the pIC50 was < 4.30.
For `N#Cc1c(NC(=O)c2ccc(Br)o2)n(-c2ccccc2)c2nc3ccccc3nc12` [5-bromanyl-N-(3-cyano-1-phenyl-pyrrolo[3,2-b]quinoxalin-2-yl)furan-2-carboxamide], the pIC50 was 4.86.
With `CC(NC(=O)c1ccc2c(c1)OCO2)C1CCCO1` (stereo not given) [MLS000065753] the pIC50 was < 4.30.
`O=C(c1cccs1)c1no[n+]([O-])c1C(=O)c1cccs1` [(5-oxidanidyl-4-thiophen-2-ylcarbonyl-1,2,5-oxadiazol-5-ium-3-yl)-thiophen-2-yl-methanone] gave a pIC50 of 5.46.
